In US20180037595A1, “BENZOXABOROLE COMPOUNDS AND USES THEREOF” (GLAXOSMITHKLINE INTELLECTUAL PROPERTY (NO.2) LIMITED, priority 2015, published 2018):
In brackets after ≈: the same amount, converted by molar mass. Like-named read-outs stand apart in the source and are kept apart here.

Key:
[1] = test system: M. tuberculosis clinical isolates; assay: MIC against clinical strains (BACTEC MGIT 960 System); assay type: cell-based; settings: Mycobacterium tuberculosis, nearly all of the clinical isolate strains of Tables 2A-2D
Human mito LeuRS = target: T1, Human mito LeuRS (Homo sapiens, UniProt Q15031); assay: LeuRS aminoacylation assay, IC50 determination; assay type: biochemical
T1 sequence (Q15031 1-903): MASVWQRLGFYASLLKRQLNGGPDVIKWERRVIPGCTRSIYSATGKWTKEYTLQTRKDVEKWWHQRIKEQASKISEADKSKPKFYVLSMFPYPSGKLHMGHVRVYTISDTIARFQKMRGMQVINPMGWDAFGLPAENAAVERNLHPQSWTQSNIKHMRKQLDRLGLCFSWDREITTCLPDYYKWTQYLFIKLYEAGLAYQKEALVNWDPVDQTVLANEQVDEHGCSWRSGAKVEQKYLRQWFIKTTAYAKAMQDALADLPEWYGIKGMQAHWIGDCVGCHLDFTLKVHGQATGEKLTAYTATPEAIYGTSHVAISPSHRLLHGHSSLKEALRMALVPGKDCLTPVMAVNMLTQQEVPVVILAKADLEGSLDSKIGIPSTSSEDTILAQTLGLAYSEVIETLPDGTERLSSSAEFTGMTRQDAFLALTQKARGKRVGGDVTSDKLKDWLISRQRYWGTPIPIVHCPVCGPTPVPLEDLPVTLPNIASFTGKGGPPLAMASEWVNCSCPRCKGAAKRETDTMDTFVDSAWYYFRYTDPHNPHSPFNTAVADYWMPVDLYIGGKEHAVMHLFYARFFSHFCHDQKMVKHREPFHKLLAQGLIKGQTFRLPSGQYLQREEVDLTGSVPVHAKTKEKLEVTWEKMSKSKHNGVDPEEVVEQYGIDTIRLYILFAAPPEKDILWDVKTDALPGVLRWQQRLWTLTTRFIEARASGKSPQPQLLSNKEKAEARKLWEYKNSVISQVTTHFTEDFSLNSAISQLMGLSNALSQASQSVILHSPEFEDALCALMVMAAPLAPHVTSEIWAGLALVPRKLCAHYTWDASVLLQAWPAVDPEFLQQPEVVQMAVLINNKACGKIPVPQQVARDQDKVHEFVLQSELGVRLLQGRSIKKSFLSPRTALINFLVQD

HepG2 cells = assay: HepG2 cytotoxicity assay (resazurin); assay type: cell-based
Human cyto LeuRS = Human cyto LeuRS (Homo sapiens, UniProt Q9P2J5); assay: LeuRS aminoacylation assay, IC50 determination; assay type: biochemical
Chain of Human cyto LeuRS (Q9P2J5 whole entry): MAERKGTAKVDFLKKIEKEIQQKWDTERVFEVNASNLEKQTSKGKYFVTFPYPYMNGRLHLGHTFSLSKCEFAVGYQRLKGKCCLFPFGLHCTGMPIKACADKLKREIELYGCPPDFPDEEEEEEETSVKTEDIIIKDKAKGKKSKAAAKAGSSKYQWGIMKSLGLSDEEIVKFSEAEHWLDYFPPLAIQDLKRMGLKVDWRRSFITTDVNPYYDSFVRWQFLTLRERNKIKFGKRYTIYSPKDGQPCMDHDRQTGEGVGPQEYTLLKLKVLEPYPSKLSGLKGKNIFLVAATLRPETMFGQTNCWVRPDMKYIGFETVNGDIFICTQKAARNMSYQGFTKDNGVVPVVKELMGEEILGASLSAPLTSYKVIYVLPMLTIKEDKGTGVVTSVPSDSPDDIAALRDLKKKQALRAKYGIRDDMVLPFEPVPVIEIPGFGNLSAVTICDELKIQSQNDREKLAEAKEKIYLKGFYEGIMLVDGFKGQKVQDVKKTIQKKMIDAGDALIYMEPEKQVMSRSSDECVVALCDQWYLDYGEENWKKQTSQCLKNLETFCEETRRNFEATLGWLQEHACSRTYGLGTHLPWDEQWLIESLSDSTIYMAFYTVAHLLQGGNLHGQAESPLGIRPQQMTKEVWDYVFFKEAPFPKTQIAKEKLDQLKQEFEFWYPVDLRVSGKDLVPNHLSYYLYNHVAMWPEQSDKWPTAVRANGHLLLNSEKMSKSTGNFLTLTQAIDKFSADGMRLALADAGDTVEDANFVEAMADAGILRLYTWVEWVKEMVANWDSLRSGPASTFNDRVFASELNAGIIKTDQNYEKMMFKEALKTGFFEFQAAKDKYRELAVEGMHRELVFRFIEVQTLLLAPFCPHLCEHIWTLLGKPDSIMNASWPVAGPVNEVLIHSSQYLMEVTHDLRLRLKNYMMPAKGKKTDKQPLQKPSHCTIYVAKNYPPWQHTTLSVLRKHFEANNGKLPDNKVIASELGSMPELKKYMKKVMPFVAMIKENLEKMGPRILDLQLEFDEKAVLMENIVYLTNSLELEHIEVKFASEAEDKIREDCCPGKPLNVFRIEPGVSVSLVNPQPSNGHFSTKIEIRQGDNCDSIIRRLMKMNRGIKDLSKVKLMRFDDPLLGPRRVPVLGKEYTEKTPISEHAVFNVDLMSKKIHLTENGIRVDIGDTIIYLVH

Mtb LeuRS = Mtb LeuRS (Mycobacterium tuberculosis, UniProt P9WFV1); assay: LeuRS aminoacylation assay, IC50 determination; assay type: biochemical, M. tuberculosis
Chain of Mtb LeuRS (P9WFV1 whole entry): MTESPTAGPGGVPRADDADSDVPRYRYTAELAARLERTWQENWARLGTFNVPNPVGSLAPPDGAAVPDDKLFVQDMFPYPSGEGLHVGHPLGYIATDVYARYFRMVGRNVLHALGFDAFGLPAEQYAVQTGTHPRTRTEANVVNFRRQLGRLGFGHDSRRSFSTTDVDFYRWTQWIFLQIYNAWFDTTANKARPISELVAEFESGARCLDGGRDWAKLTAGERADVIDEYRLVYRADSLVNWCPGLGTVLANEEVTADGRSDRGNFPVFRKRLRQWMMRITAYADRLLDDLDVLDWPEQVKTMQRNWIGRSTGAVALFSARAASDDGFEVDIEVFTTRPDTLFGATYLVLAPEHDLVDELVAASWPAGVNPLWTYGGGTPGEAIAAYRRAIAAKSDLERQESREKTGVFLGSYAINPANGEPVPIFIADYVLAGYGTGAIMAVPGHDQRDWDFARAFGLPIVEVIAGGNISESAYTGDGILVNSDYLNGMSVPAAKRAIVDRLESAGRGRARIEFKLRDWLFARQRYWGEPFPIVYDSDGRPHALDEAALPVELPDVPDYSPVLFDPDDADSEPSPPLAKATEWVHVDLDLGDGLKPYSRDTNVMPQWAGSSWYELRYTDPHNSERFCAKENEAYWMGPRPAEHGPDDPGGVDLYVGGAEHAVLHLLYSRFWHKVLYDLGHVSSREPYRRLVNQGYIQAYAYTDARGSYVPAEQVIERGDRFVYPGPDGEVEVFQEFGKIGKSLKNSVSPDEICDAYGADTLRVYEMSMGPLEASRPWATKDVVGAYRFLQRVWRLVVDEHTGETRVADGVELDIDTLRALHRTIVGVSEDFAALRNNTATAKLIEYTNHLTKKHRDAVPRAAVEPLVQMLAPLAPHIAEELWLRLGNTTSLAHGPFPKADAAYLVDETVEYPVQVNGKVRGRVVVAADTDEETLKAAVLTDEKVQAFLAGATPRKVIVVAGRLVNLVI
Protocol: For biochemical analyses an N-terminal six histidine-tagged LeuRS was over-expressed in Escherichia coli which were E. coli codon-optimised (GenScript, Piscataway N.J., USA), from human mitochondria and cytoplasm, and M. tuberculosis. N-terminal six histidine-tagged LeuRS proteins were over-expressed and purified according to Novagen (Madison, Wis., USA) using an E. coli BL21(DE3) T7 RNA polymerase over-expression strain.
Experiments were performed in 96-well microtiter plates, using 80 μL reaction mixtures containing 50 mM HEPES-KOH (pH 8.0), 30 mM MgCl2 30 mM KCl, 13 μM L-[^14C]leucine (306 mCi/mmol, Perkin-Elmer), 15 uM total E. coli tRNA (Roche, Switzerland), 0.02% (w/v) BSA, 1 mM DTT, 0.2 μM LeuRS and 4 mM ATP at 30° C. Reactions were started by the addition of 4 mM ATP. After 7 minutes, reactions were quenched and tRNA was precipitated by the addition of 50 μL of 10% (w/v) TCA and transferred to 96-well nitrocellulose membrane filter plates (Millipore Multiscreen HTS, MSHAN4B50). Each well was then washed three times with 100 μL of 5% TCA. Filter plates were then dried under a heat lamp and the precipitated L-[^14C]leucine tRNALeu were quantified by liquid scintillation counting using a Wallac MicroBeta Trilux model 1450 liquid scintillation counter (PerkinElmer, Waltham, Mass., USA). The only difference was with the human cytoplasmic LeuRS when we used tRNA isolated from Brewer's Yeast (Roche Diagnostics GmbH).
Reactions were initiated by the addition of 4 mM ATP. Reactions were stopped after 7 minutes then precipitated and counted to quantify radioactivity. IC50 values were determined using the Graphpad Prism software package (Graphpad Software Inc. (La Jolla, Calif., USA).

A. baumannii ATCC 17978 = assay: General antimicrobial activity assay (CLSI broth microdilution); assay type: cell-based
Protocol: (§1) Whole-cell antimicrobial activity was determined by broth microdilution using the Clinical and Laboratory Standards Institute (CLSI) recommended procedure, Document M7-A7, “Methods for Dilution Susceptibility Tests for Bacteria that Grow Aerobically”.

P. aeruginosa PA01 = assay: as above; assay type: cell-based
Protocol: as §1

E. coli K12 tolC::Tn10 = assay: as above; assay type: cell-based; settings: Escherichia coli, read-out: MIC: E. coli K12 tolC::Tn10
Protocol: as §1

E. coli K12 = assay: as above; assay type: cell-based
Protocol: as §1

[2] = test system: M. tuberculosis standard strain Mtb H37Rv; assay: MIC determination against mycobacteria (resazurin microtiter assay); assay type: cell-based, Mycobacterium tuberculosis; settings: for Selectivity Index (A/B): HepG2 cell 48 h Tox50 (A) / Mtb H37Rv MIC (B); for MIC: Mycobacterium tuberculosis, H37RV, read-out: Mtb H37Rv MIC (B)
[3] = Homo sapiens, HepG2, 48 h; read-out: HepG2 cell 48 h Tox50 (A)
[4] = Acinetobacter baumannii, ATCC17978; read-out: MIC: A. baumannii ATCC 17978
[5] = Pseudomonas aeruginosa, PA01; read-out: MIC: P. aeruginosa PA01
[6] = Escherichia coli, K12; read-out: MIC: E. coli K12
[7] = Homo sapiens, HepG2, 48 h, read-out: HepG2 cell 48 h Tox50 (A)
[8] = listed as EXAMPLE 4 G4-Cl, hydrochloride
[9] = said to be sub-micromolar, read-out: IC50 values against M. tuberculosis
[10] = Acinetobacter baumannii, ATCC17978, read-out: MIC: A. baumannii ATCC 17978
[11] = Pseudomonas aeruginosa, PA01, read-out: MIC: P. aeruginosa PA01
[12] = Escherichia coli, K12, read-out: MIC: E. coli K12

Molecule `NC[C@H]1OB2OCCOc3ccc(Cl)c1c32` [Example G4-CI] has an MIC [1] of under 0.1 µM.
`CCOc1ccc(Br)c2c1B(O)O[C@@H]2CN` [Example C4-Br, reference compound] showed an IC50 (Human mito LeuRS) of over 300 µM, an IC50 (HepG2 cells; [3]) of 32 µM and an IC50 (Human cyto LeuRS) of 31 µM. The IC50 (Mtb LeuRS; Mtb LeuRS IC50) was 0.07 µM, the MIC (A. baumannii ATCC 17978; [4]) was 64 µg/mL (≈ 224 µM) and the MIC (P. aeruginosa PA01; [5]) was 64 µg/mL (≈ 224 µM). It also gave an MIC (E. coli K12 tolC::Tn10) of 64 µg/mL (≈ 224 µM) and an MIC (E. coli K12; [6]) of 64 µg/mL (≈ 224 µM).
For `Cl.NC[C@H]1OB2OCCOc3ccc(Cl)c1c32` [Example 4, (S)-(3-chloro-7,8-dihydro-2H-1,6,9-trioxa-9a-borabenzo[cd]azulen-2-yl)methanamine hydrochloride], the IC50 (Human mito LeuRS) was over 300 µM, the IC50 (HepG2 cells; [7]) was over 1000 µM and the IC50 (Human cyto LeuRS) was 94.7 µM. For the same molecule, the “Selectivity Index (A/B)” value [2, 8] was over 12500, the “Selectivity Index (A/B)” value ([2]; listed as Example 4 G4-CI, hydrochloride) was > 12,500 and the MIC [2] was under 0.1 µM. For the same molecule, the “Mtb H37Rv MIC (B)” value [2, 8] was 0.08 µM, the IC50 (Mtb LeuRS; read-out: Mtb LeuRS IC50) was 0.148 µM and the IC50 (Mtb LeuRS; [9]) was 0.1 µM. The MIC (A. baumannii ATCC 17978; [10]) was 64 µg/mL, the MIC (P. aeruginosa PA01; [11]) was 64 µg/mL and the MIC (E. coli K12 tolC::Tn10) was 64 µg/mL. For the same molecule, the MIC (E. coli K12; [12]) was 64 µg/mL.
Molecule `CCOc1cccc2c1B(O)O[C@@H]2CN` [Example C5-H, reference compound] has an IC50 (Human mito LeuRS) of over 300 µM, an IC50 (HepG2 cells; [3]) of 1.8 µM and an IC50 (Human cyto LeuRS) of 25.6 µM. For the same molecule, the “Selectivity Index (A/B)” value [2] was 5 and the IC50 (Mtb LeuRS; read-out: Mtb LeuRS IC50) was 0.111 µM.
`Cl.NC[C@H]1OB2OCCOc3ccc(Br)c1c32` [Example 2, (S)-(3-bromo-7,8-dihydro-2H-1,6,9-trioxa-9a-borabenzo[cd]azulen-2-yl)methanamine hydrochloride] gave an IC50 (Human mito LeuRS) of over 300 µM, an IC50 (HepG2 cells; [7]) of 292 µM and an IC50 (Human cyto LeuRS) of 118 µM. The “Selectivity Index (A/B)” value [2] was 4177, the MIC [2] was under 0.1 µM and the “Mtb H37Rv MIC (B)” value ([2]; listed as EXAMPLE 2 G2-Br, hydrochloride) was 0.07 µM. It also gave an MIC [1] of under 0.1 µM, an IC50 (Mtb LeuRS; read-out: Mtb LeuRS IC50) of 0.115 µM and an IC50 (Mtb LeuRS; [9]) of 0.13 µM. For the same molecule, the MIC (A. baumannii ATCC 17978; [10]) was 64 µg/mL, the MIC (P. aeruginosa PA01; [11]) was 64 µg/mL and the MIC (E. coli K12 tolC::Tn10) was 64 µg/mL. The MIC (E. coli K12; [12]) was 64 µg/mL.
In the case of `NCC1OB2OCCOc3cccc1c32` (racemic) [Example C2-H, reference compound], the IC50 (Human mito LeuRS) is reported as over 300 µM, the IC50 (HepG2 cells; [7]) is reported as over 50 µM and the IC50 (Human cyto LeuRS) is reported as 272 µM. The “Selectivity Index (A/B)” value [2] was over 26, the IC50 (Mtb LeuRS; read-out: Mtb LeuRS IC50) was 0.506 µM and the MIC (A. baumannii ATCC 17978; [10]) was 2 µg/mL (≈ 9.76 µM). For the same molecule, the MIC (P. aeruginosa PA01; [11]) was 2 µg/mL (≈ 9.76 µM), the MIC (E. coli K12 tolC::Tn10) was 4 µg/mL (≈ 19.5 µM) and the MIC (E. coli K12; [12]) was 2 µg/mL (≈ 9.76 µM).
Work on `CCOc1ccc(Cl)c2c1B(O)O[C@@H]2CN` [Example C6-Cl, reference compound] yielded an IC50 (Human mito LeuRS) of over 300 µM, an IC50 (HepG2 cells; [3]) of 36.3 µM and an IC50 (Mtb LeuRS; Mtb LeuRS IC50) of 0.05 µM. The MIC (A. baumannii ATCC 17978; [4]) was 64 µg/mL (≈ 265 µM), the MIC (P. aeruginosa PA01; [5]) was 64 µg/mL (≈ 265 µM) and the MIC (E. coli K12 tolC::Tn10) was 64 µg/mL (≈ 265 µM). It also gave an MIC (E. coli K12; [6]) of 64 µg/mL (≈ 265 µM).
For `CC1(C)COc2ccc(Br)c3c2B(OC3CN)O1.Cl` (centres unmarked) [Example 9, (3-bromo-8,8-dimethyl-7,8-dihydro-2H-1,6,9-trioxa-9a-borabenzo[cd]azulen-2-yl)methanamine hydrochloride], the IC50 (HepG2 cells; [7]) was over 50 µM, the IC50 (Human cyto LeuRS) was over 300 µM and the “Selectivity Index (A/B)” value ([2]; listed as EXAMPLE 9 G9-Br, hydrochloride) was over 167. The “Selectivity Index (A/B)” value ([2]; listed as Example 9 G9-Br, hydrochloride) was over 167, the MIC [2] was 0.3 µM and the IC50 (Mtb LeuRS; read-out: Mtb LeuRS IC50) was 1.25 µM. For the same molecule, the MIC (A. baumannii ATCC 17978; [10]) was over 64 µg/mL, the MIC (P. aeruginosa PA01; [11]) was over 64 µg/mL and the MIC (E. coli K12 tolC::Tn10) was over 64 µg/mL. For the same molecule, the MIC (E. coli K12; [12]) was over 64 µg/mL.
`CC1COc2ccc(Br)c3c2B(O1)OC3CN.Cl` (centres unmarked) [Example 8, (3-bromo-8-methyl-7,8-dihydro-2H-1,6,9-trioxa-9a-borabenzo[cd]azulen-2-yl)methanamine hydrochloride] was tested, and the IC50 (HepG2 cells; [7]) was over 50 µM, the IC50 (Human cyto LeuRS) was over 300 µM and the “Selectivity Index (A/B)” value [2] was over 167. The MIC [2] was 0.3 µM, the IC50 (Mtb LeuRS; read-out: Mtb LeuRS IC50) was 1.43 µM and the MIC (A. baumannii ATCC 17978; [10]) was over 64 µg/mL. For the same molecule, the MIC (P. aeruginosa PA01; [11]) was over 64 µg/mL, the MIC (E. coli K12 tolC::Tn10) was over 64 µg/mL and the MIC (E. coli K12; [12]) was over 64 µg/mL.
Work on `CC1(C)COc2ccc(Cl)c3c2B(O[C@@H]3CN)O1.Cl` [Example 12, (S)-(3-chloro-8,8-dimethyl-7,8-dihydro-2H-1,6,9-trioxa-9a-borabenzo[cd]azulen-2-yl)methanamine hydrochloride] yielded an IC50 (HepG2 cells; [7]) of 322 µM, an IC50 (Human cyto LeuRS) of over 300 µM and an MIC [2] of 0.08 µM. For the same molecule, the IC50 (Mtb LeuRS; read-out: Mtb LeuRS IC50) was 0.78 µM, the MIC (A. baumannii ATCC 17978; [10]) was over 64 µg/mL and the MIC (P. aeruginosa PA01; [11]) was over 64 µg/mL. The MIC (E. coli K12 tolC::Tn10) was over 64 µg/mL and the MIC (E. coli K12; [12]) was over 64 µg/mL.
